Reference: ChEMBL document CHEMBL2424597, “Diarylheptanoids with inhibitory effects on melanogenesis from the rhizomes of Curcuma comosa in B16 melanoma cells” (Bioorg Med Chem Lett, 2013)

How the values were obtained:
[1] = molecular target: T1, Tyrosinase (Agaricus bisporus) (UniProt O42713); test: Inhibition of mushroom tyrosinase at 10 uM
T1 sequence (whole entry): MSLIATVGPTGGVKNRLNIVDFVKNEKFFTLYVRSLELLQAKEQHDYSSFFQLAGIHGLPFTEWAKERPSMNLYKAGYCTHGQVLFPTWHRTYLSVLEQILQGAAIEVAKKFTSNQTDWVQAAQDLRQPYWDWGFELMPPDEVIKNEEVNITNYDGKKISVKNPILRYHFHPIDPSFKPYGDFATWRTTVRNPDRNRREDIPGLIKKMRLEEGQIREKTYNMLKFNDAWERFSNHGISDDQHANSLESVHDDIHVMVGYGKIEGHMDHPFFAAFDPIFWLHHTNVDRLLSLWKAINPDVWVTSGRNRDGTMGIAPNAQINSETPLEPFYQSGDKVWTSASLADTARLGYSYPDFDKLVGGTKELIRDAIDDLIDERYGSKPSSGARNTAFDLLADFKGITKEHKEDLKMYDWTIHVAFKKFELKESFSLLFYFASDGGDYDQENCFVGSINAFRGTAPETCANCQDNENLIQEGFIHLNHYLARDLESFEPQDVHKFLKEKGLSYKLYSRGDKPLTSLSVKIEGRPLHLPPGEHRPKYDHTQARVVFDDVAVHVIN

[2] = Cytotoxicity against mouse B16-4A5 cells assessed as cell viability at 10 uM after 70 hrs by WST-8 assay in presence of theophylline; assay type: cell-based; settings: read-out: Activity
[3] = Cytotoxicity against mouse B16-4A5 cells assessed as cell viability at 3 uM after 70 hrs by WST-8 assay in presence of theophylline; assay type: cell-based; settings: read-out: Activity
[4] = Antimelanogenic activity in mouse B16-4A5 cells assessed as inhibition of theophylline-induced melanin production after 72 hrs by spectrophotometry relative to control; assay type: functional, cell-based; settings: B16-4A5, 72 h
[5] = Antimelanogenic activity in mouse B16-4A5 cells assessed as inhibition of theophylline-induced melanin production at 10 uM after 72 hrs by spectrophotometry relative to control; assay type: functional; settings: B16-4A5, 72 h
[6] = Antimelanogenic activity in mouse B16-4A5 cells assessed as inhibition of theophylline-induced melanin production at 3 uM after 72 hrs by spectrophotometry relative to control; assay type: functional; settings: B16-4A5, 72 h
[7] = Antimelanogenic activity in mouse B16-4A5 cells assessed as inhibition of theophylline-induced melanin production at 1 uM after 72 hrs by spectrophotometry relative to control; assay type: functional; settings: B16-4A5, 72 h
[8] = Antimelanogenic activity in mouse B16-4A5 cells assessed as inhibition of theophylline-induced melanin production at 0.3 uM after 72 hrs by spectrophotometry relative to control; assay type: functional; settings: B16-4A5, 72 h
[9] = Antimelanogenic activity in mouse B16-4A5 cells assessed as inhibition of theophylline-induced melanin production at 0.1 uM after 72 hrs by spectrophotometry relative to control; assay type: functional; settings: B16-4A5, 72 h

Row | inhibition [1] [%] | IC50 [4] [nM] | SMILES | viability at 70 h, 10 µM [2] [%] | viability at 70 h, 3 µM [3] [%] | inhibition at 10 µM [5] [%] | inhibition at 3 µM [6] [%] | inhibition at 1 µM [7] [%] | inhibition at 0.3 µM [8] [%] | inhibition at 0.1 µM [9] [%]
1 | 34.3 | 1990 | O=C(/C=C/C=C/c1ccc(O)cc1)CCc1ccc(O)cc1 | 92.3 | 95.2 | 68.4 | 41.9 | 53.4 | 31.7 | 25.4
2 | < 17 | > 10000 | COc1cc(CC[C@@H](O)CC/C=C/c2ccc(O)cc2)ccc1O | 76 | 84.6 | 37.8 | 27.2 | 28.9 | 8.9 | 13.7
3 | < 17 | – | Oc1ccc(CC[C@H](O)C[C@H](O)CCc2ccc(O)c(O)c2)cc1 | 71.6 | > 91.9 | – | -23.7 | -10.9 | -3.7 | -0.7
4 | < 17 | 1240 | O=C(CC/C=C/c1ccc(O)cc1)CCc1ccc(O)cc1 | 71.6 | > 91.9 | 57.1 | 61.4 | 44.9 | 29.9 | 21.2
5 | < 17 | – | Oc1ccc(CC[C@@H](O)C[C@H](O)CCc2ccc(O)c(O)c2)cc1 | 92.3 | 95.2 | -18.9 | 0.1 | -22.7 | 8.9 | 7
6 | < 17 | – | O=C(/C=C/C=C/c1ccc(O)c(O)c1)CCc1ccc(O)cc1 | 92.3 | 95.2 | 16.3 | 23.4 | 30.5 | 37.8 | 27.8
7 | < 17 | > 10000 | CC(=O)O[C@H](CCc1ccc(O)cc1)C[C@@H](CCc1ccc(O)c(O)c1)OC(C)=O | 92.3 | 95.2 | 27.3 | 7.3 | 8.1 | 6.3 | 3.6
8 | < 17 | – | COc1cc(CC[C@@H](O)CC(=O)CCc2ccc(O)cc2)ccc1O | 92.3 | 95.2 | -24.9 | 4.4 | 16.6 | -11.9 | 4
9 | < 17 | – | CC(=O)O[C@H](CCc1ccc(O)c(O)c1)C[C@H](O)CCc1ccc(O)c(O)c1 | 92.3 | 95.2 | 5.5 | 4.5 | -5.7 | -9.9 | -1.6
10 | < 17 | > 10000 | Oc1ccc(CC[C@@H](O)C[C@H](O)CCc2ccc(O)cc2)cc1 [(+)-HANNOKINOL] | 92.3 | 95.2 | 21.9 | 23.1 | 15.7 | 20.3 | 22
11 | < 17 | – | O=C(CCc1ccc(O)cc1)C[C@@H](O)CCc1ccc(O)cc1 | – | – | – | – | – | – | –
12 | < 17 | – | COc1cc(CC[C@@H](O)C[C@@H](O)CCc2ccc(O)cc2)cc(OC)c1O | 92.3 | 95.2 | 7.2 | 25 | 23.1 | 23.2 | 11.5
13 | < 17 | 4910 | CC(=O)O[C@H](CCc1ccc(O)c(O)c1)C[C@H](O)CCc1ccc(O)cc1 | 92.3 | 95.2 | 59.9 | 21.8 | 27.3 | 15.1 | 15.4
14 | < 17 | 3000 | COc1cc(CC[C@H](O)C[C@H](O)CCc2cc(OC)c(O)c(OC)c2)ccc1O | 92.3 | 95.2 | 34.4 | 50.3 | 38.4 | 43.2 | 35.4
15 | 25.5 | 360 | Oc1ccc(/C=C/CC[C@@H](O)CCc2ccc(O)cc2)cc1 | 93 | 95.2 | 90.5 | 79.3 | 67.3 | 47.5 | 27.7
